For series [1] the following is noted: brain perfusion of adult rats; reported values (Cisternino et al.); cited from earlier work.
Another series relates to hCMEC/D3 monolayers. The series can be described thus: Transendothelial electrical resistance (TEER) of hCMEC/D3 monolayers. The class given is cell-based, human. Conditions: treatment of hCMEC/D3 monolayers. The protocol:
Transendothelial electrical resistance (TEER) of hCMEC/D3 monolayers on Transwell-Clear™ filters was measured using an Endohm 12 chamber and an Endohmeter (World Precision Instruments Inc., Sarasota, Fla., USA). The baseline resistance of ECM-coated inserts was always subtracted from the resistance obtained in the presence of the endothelial cultures. Primary cultures of rat brain endothelial cells were used as control.

For a further series, the target named is P-gp (Homo sapiens, UniProt P08183). Description: Drug accumulation in hCMEC/D3 cells with P-gp inhibitor. The following applies: PSC-833 10 μM.
A further series concerns hCMEC/D3 cells. The protocol: HCMEC/D3 cells were seeded on the filters at a density of 2×10^5 cells/cm^2 in normal culture medium (EGM-2). […] All plates were kept at 37° C. […] PS (clearance) is the permeability surface area product and s is the surface area of the filter (1 cm^2).

Chain of P-gp (P08183 whole entry): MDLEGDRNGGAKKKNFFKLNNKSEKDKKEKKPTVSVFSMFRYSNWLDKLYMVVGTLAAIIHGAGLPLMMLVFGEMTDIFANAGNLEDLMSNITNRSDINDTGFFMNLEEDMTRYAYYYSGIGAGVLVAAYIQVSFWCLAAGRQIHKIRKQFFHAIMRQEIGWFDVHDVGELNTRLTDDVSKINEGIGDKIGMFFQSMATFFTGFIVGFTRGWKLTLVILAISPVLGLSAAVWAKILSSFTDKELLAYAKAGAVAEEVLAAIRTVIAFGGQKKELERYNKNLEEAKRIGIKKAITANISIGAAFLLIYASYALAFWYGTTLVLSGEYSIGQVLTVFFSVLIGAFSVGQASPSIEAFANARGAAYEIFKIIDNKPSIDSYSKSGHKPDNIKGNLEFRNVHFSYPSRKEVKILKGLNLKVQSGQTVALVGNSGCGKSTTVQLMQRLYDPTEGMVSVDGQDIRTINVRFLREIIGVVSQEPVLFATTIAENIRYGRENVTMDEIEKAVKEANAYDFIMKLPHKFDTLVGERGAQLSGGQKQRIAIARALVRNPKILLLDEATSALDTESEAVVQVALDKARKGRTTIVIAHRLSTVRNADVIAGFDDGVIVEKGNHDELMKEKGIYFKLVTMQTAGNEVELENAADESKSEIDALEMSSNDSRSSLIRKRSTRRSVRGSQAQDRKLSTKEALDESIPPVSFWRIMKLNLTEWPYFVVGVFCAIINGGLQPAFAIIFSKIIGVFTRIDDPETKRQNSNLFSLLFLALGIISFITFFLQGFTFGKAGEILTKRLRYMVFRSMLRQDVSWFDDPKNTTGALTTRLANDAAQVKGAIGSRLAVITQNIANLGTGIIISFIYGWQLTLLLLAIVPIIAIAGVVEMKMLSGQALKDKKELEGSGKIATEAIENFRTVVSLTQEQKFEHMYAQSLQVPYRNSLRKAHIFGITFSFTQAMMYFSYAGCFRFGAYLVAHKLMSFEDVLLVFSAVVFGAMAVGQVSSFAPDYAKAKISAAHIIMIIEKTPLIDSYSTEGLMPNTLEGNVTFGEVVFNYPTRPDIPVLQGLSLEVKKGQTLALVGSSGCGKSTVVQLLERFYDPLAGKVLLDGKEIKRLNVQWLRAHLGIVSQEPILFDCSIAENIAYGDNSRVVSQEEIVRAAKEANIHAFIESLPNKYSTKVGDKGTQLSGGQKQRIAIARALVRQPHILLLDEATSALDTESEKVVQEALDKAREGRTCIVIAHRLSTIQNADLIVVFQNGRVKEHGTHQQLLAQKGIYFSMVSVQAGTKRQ
Method for P-gp: The plates were shaken during both preincubation and incubation periods to reduce the effect of the aqueous boundary layer on drug accumulation. The cells were rapidly washed three times with ice-cold PBS to eliminate the extracellular drug, and then lyed in 100 μl 0.1 M NaOH or 1% Triton-X100.

For the compound `CC[C@]1(O)C[C@H]2CN(CCc3c([nH]c4ccccc34)[C@@](C(=O)OC)(c3cc4c(cc3OC)N(C=O)[C@H]3[C@@](O)(C(=O)OC)[C@H](OC(C)=O)[C@]5(CC)C=CCN6CC[C@]43[C@@H]65)C2)C1` [Vincristine], the “In vivo Kin” value in series [1] is 0.06 µL/s/g.

As for `COc1cc2nc(N3CCN(C(=O)c4ccco4)CC3)nc(N)c2cc1OC` [Prazosin], the “In vivo Kin” value in series [1] was 0.96 µL/s/g.

As for `COc1cc2c(c(OC)c1OC)-c1ccc(OC)c(=O)cc1[C@@H](NC(C)=O)CC2` [Colchicine], the “In vivo Kin” value in series [1] was 0.28 µL/s/g.

For `Nc1ncnc2c1nc(Sc1ccc(Cl)cc1)n2[C@@H]1O[C@@H]2COP(=O)(O)O[C@H]2[C@H]1O` [chlorophenylthio-cAMP], in the series with hCMEC/D3 monolayers, the “Effect on TEER value” is “failed to significantly increase”.

For `C/C=C/C[C@@H](C)C(=O)[C@H]1C(=O)N[C@@H](C(C)C)C(=O)N(C)CC(=O)N(C)[C@@H](CC(C)C)C(=O)N[C@@H](C(C)C)C(=O)N(C)[C@@H](CC(C)C)C(=O)N[C@@H](C)C(=O)N[C@H](C)C(=O)N(C)[C@@H](CC(C)C)C(=O)N(C)[C@@H](CC(C)C)C(=O)N(C)[C@@H](C(C)C)C(=O)N1C` [PSC-833], on P-gp, the “[3H] daunorubicin uptake by hCMEC/D3 cells” value is “markedly increased”. Further, the “calcein-AM uptake by hCMEC/D3 cells” value on P-gp (calcein-AM 10 μM) is “markedly increased”. Also, the “rhodamine 123 uptake by hCMEC/D3 cells” value on P-gp (rhodamine 123 10 μM) is recorded as “markedly increased”.

Consider `CN1CC[C@]23c4c5ccc(O)c4O[C@H]2[C@@H](O[C@@H]2O[C@H](C(=O)O)[C@@H](O)[C@H](O)[C@H]2O)C=C[C@H]3[C@H]1C5` [M6G, morphine-6-glucuronide], for which the “In vivo Kin” value in series [1] was 0.03 µL/s/g.

For `CN1C(=O)CN=C(c2ccccc2)c2cc(Cl)ccc21` [Diazepam], in series [1], the “In vivo Kin” value is 45 µL/s/g.

For Lucifer Yellow, the “Permeability of Lucifer Yellow across hCMEC/D3” value in the series on hCMEC/D3 cells was 0.53±0.10 10^−3 cm/min.
